Laboratory results published in PMC7114444 (Virus Research, 2014).
Entries after “also recorded” stand apart in the source; their conditions may differ.

What was measured:
lymphocyte = lymphocyte proliferation assays, ref Sadeg et al., 1993a, 1993b; cited from earlier work
NFAT3-GFP = test: NFAT-GFP nuclear translocation assay; assay type: cell-based; settings: HeLa cells, 40 nM drug, 2 μM ionomycin
HCoV-NL63 N-protein = test: Western blot of N protein expression in HCoV-NL63-infected CaCo-2 cells; assay type: cell-based; settings: for N-protein expression at 20 μM: 48 h, 20 μM inhibitor
HCoV-NL63 = HCoV-NL63 replication in Caco-2 cells, qPCR of genome equivalents; assay type: cell-based; settings: Human coronavirus NL63, Caco-2, 48 h, read-out: Inhibition of HCoV-NL63 in CaCo-2 EC50

Row | EC50 (HCoV-NL63) [µM] | SMILES | immunosuppressive activity relative to CsA activity (lymphocyte) | NFAT-GFP nuclear translocation (NFAT3-GFP) | N-protein expression at 20 μM (HCoV-NL63 N-protein) | concentration above which N protein is not detectable any more (HCoV-NL63 N-protein; discussion statement) | concentration at which N protein decreased (HCoV-NL63 N-protein; discussion statement) [µM]
1 |  | C/C=C/C[C@@H](C)[C@@H](O)[C@H]1C(=O)N[C@@H](C(C)C)C(=O)N(C)CC(=O)N(C)[C@@H](CC(C)C)C(=O)N[C@@H](C(C)C)C(=O)N(C)[C@@H](CC(C)C)C(=O)N[C@@H](C)C(=O)N[C@H](C)C(=O)N(C)[C@@H](CC(C)C)C(=O)N(C)[C@@H](CC(C)C)C(=O)N(C)[C@@H](C(C)C)C(=O)N1C [CsD] | about 10% | NFAT is not transferred to the nucleus; also recorded: showed the same behavior as CsA; also recorded: remained in the cytoplasm |  |  | 
2 | 0.8 | C/C=C/C[C@@H](C)[C@@H](O)[C@H]1C(=O)N[C@@H](CC)C(=O)N(C)CC(=O)N(C)[C@@H]([C@@H](C)CC)C(=O)N[C@@H](C(C)C)C(=O)N(C)[C@@H](CC(C)C)C(=O)N[C@@H](C)C(=O)N[C@H](C)C(=O)N(C)[C@@H](CC(C)C)C(=O)N(C)[C@@H](CC(C)C)C(=O)N(C)[C@@H](C(C)C)C(=O)N1C [NIM811] |  | allow NFAT-GFP translocation to the nucleus; also recorded: NFAT migrated to the nucleus | not detectable any more | above 5 μM | 
3 | 0.8 | C/C=C/C[C@@H](C)[C@@H](O)[C@H]1C(=O)N[C@@H](CC)C(=O)N(C)[C@H](C)C(=O)N(CC)[C@@H](C(C)C)C(=O)N[C@@H](C(C)C)C(=O)N(C)[C@@H](CC(C)C)C(=O)N[C@@H](C)C(=O)N[C@H](C)C(=O)N(C)[C@@H](CC(C)C)C(=O)N(C)[C@@H](CC(C)C)C(=O)N(C)[C@@H](C(C)C)C(=O)N1C [ALV, Alisporivir] |  | allow NFAT-GFP translocation to the nucleus; also recorded: NFAT migrated to the nucleus | not detectable any more | above 5 μM | 1.25
4 | 6.6 | C=CC[C@@H]1/C=C(\C)C[C@H](C)C[C@H](OC)[C@H]2O[C@@](O)(C(=O)C(=O)N3CCCC[C@H]3C(=O)O[C@H](/C(C)=C/[C@@H]3CC[C@@H](O)[C@H](OC)C3)[C@H](C)[C@@H](O)CC1=O)[C@H](C)C[C@@H]2OC [FK506] |  | NFAT is not transferred to the nucleus; also recorded: remained in the cytoplasm |  |  | 
